Four molecules from article PMC10254030, “Photoactivatable Heptamethine-Based Carbonic Anhydrase Inhibitors Leading to New Anti-Antibacterial Agents” (International Journal of Molecular Sciences, 2023) can be followed below.

The target in series [1] is E. coli γ (Escherichia coli, UniProt P0A9W9). The series is classed as biochemical. To be noted: stopped-flow CO2 hydrase assay, pH 8.4, mean from 3 assays. The protocol:
(§1) The CA isoforms belong to different classes of CA enzymes characterized by different kinetic and structural features to assess isoform selectivity.
(§2) An Applied Photophysics stopped-flow instrument was used to assay CA-catalyzed CO2 hydration activity. […] The uncatalyzed rates were determined in the same manner and subtracted from the total observed rates. Stock solutions of the inhibitor (0.1 mM) were prepared in distilled–deionized water, and dilutions up to 0.01 nM were done thereafter with the assay buffer. Inhibitor and enzyme solutions were preincubated together for 15 min at room temperature prior to the assay to allow for the formation of the E–I complex. The inhibition constants were obtained by non-linear least-squares methods using PRISM 3 and the Cheng–Prusoff equation as reported earlier and represent the mean from at least three different determinations. All CA isoforms were recombinant proteins obtained in house, as reported earlier.

Series [2] deals with S. epidermidis. Put plainly: photoactivity assay, irradiation with 652 nm laser. To be noted: 652 nm laser 47 min, 30 J/cm2, 2c and 2d at 64 μg/mL, others at MIC. The class given is cell-based, Staphylococcus epidermidis. The protocol:
Upon incubation of 1.5–2 h with the products, the samples were irradiated for 47 min with a 652 nm laser (to obtain 1.70 W, 30 J/cm^2). Upon irradiation, the cells were plated and incubated overnight at 35 °C on Mueller Hinton Agar (BD, 225250, New York, NY, USA).

The subject of series [3] is S. epidermidis. Put plainly: MIC and MBC test (NF EN ISO 20776-1), S. epidermidis. The class given is cell-based, Staphylococcus epidermidis. The following applies: for MIC: Staphylococcus epidermidis, ATCC14990, light or radiation study. The protocol: (§3) Derivatives 2a–f were dissolved in DMSO and further diluted with distilled water to the required final concentration. The microorganisms (E. faecalis, S. aureus, and S. epidermidis reported in Table 4) were cultured overnight at 35 °C in Mueller Hinton Broth 2, Cation-Adjusted (BD, BD 212322, New York, NY, USA) and adjusted to 0.5 McFarland, according to standardized guidelines NF EN ISO 20776-1 [23]. The minimal inhibitory concentration (MIC) test was performed according to the standardized guidelines NF EN ISO 20776-1 [23]. Once the MIC was obtained, the minimal bactericidal concentration (MBC) test was performed.

The target of series [4] is T1, hCA II (Homo sapiens, UniProt P00918).
T1 construct: made in house
Put plainly: stopped-flow CO2 hydrase assay, hCA II. To be noted: pH 7.4, mean from 3 assays. The class given is biochemical. The protocol:
as §1, §2

The target in series [5] is T2, E. coli β (Escherichia coli, UniProt P61517).
T2 construct: made in house
T2 sequence (P61517 whole entry): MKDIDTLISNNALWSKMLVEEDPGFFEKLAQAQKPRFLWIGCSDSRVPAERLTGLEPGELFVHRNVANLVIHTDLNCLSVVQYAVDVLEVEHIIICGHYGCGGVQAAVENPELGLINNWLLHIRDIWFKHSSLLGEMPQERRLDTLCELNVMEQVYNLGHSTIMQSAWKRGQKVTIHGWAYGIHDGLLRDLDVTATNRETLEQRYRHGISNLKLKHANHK
Put plainly: stopped-flow CO2 hydrase assay, E. coli β. The series is classed as biochemical. To be noted: pH 8.4, mean from 3 assays. On the procedure:
as §1
An Applied Photophysics stopped-flow instrument was used to assay CA-catalyzed CO2 hydration activity. Phenol red (at a concentration of 0.2 mM) was used as an indicator, working at the absorbance maximum of 557 nm, with 20 mM Hepes (pH 7.4 for α-class and pH 8.4 for β- and γ-classes) as a buffer and 20 mM Na2SO4 (to maintain constant the ionic strength), following the initial rates of the CA-catalyzed CO2 hydration reaction for a period of 10–100 s. The CO2 concentrations ranged from 1.7 to 17 mM for the determination of the kinetic parameters and inhibition constants. Enzyme concentrations ranged between 5 and 12 nM. For each inhibitor, at least six traces of the initial 5–10% of the reaction were used to determine the initial velocity. The uncatalyzed rates were determined in the same manner and subtracted from the total observed rates. Stock solutions of the inhibitor (0.1 mM) were prepared in distilled–deionized water, and dilutions up to 0.01 nM were done thereafter with the assay buffer. Inhibitor and enzyme solutions were preincubated together for 15 min at room temperature prior to the assay to allow for the formation of the E–I complex. The inhibition constants were obtained by non-linear least-squares methods using PRISM 3 and the Cheng–Prusoff equation as reported earlier and represent the mean from at least three different determinations. All CA isoforms were recombinant proteins obtained in house, as reported earlier.

For series [6], the system named is human red blood cells. Description: hemolysis assay. The class given is cell-based. To be noted: 0.5–150 µg/mL, 30 min 37 °C, compared with 0.01% Tween 20. The protocol: Blood collected at CHU Nancy was washed three times with PBS, and 10^7 cells/mL were incubated for 30 min at 37 °C with the newly synthesized compounds. The derivatives were previously diluted to the range from 0.5 to 75/150 μg/mL with PBS. As a positive control, cells were resuspended with 0.01% polysorbate 20 (Tween 20). Tween 20 has often been used as a reference compound for cell lysis. Upon incubation, the samples were centrifuged for 5 min at 800× g, and the supernatant was collected for optical density reading at 540 nm.

In series [7] the target is PsCA1 (Pseudomonas aeruginosa, UniProt Q9I730). Put plainly: biochemical. To be noted: stopped-flow CO2 hydrase assay, mean from 3 assays. On the procedure:
as §1, §2

For series [8], the target named is T3, PsCA3 (Pseudomonas aeruginosa, UniProt Q9HVB9).
T3 construct: made in house
T3 sequence (Q9HVB9 1-215): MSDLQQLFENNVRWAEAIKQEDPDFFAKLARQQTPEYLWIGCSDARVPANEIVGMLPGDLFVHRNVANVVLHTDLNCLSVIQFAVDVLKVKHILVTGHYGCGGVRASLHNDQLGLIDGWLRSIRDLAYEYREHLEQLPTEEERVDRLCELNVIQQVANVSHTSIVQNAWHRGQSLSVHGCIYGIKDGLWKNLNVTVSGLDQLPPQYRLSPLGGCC
Put plainly: biochemical. To be noted: stopped-flow CO2 hydrase assay, mean from 3 assays. The protocol:
as §1, §2

The test system of series [9] is MRC-5 cells. Put plainly: cytotoxicity, MTT assay. The series is classed as cell-based, human. The following applies: for IC50: MRC5, cytotoxicity, human lung fibroblasts, 24 h, MTT. The protocol: The cytotoxicity of the products was tested on MRC-5 cells (lung fibroblasts, ATCC CCL-171) with a seeding concentration of 10,000 cells/well. The products were diluted with a 2% FSC MEM medium (Sigma, M4655, Missouri, MO, USA) to concentrations ranging from 1 to 256 μg/mL and incubated with 80% confluent cells for 24 h. The following day, a 3-[4,5-dimethylthiazol-2-yl]-2,5-diphenyl tetrazolium bromide (MTT) assay was performed, and the optical density of the samples was measured at 540 nm.
(Formazan colour is commonly taken as a measure of viable cells.)

Series [10] has as its system S. aureus. Description: MIC and MBC test (NF EN ISO 20776-1), S. aureus. The class given is cell-based, Staphylococcus aureus. The following applies: for MIC: Staphylococcus aureus, ATCC29213, light or radiation study; for MBC S. aureus: bacteriostatic or bactericidal effect, tested up to 8 × MIC. The protocol: as §3
The test system of series [11] is E. faecalis. Description: MIC and MBC test (NF EN ISO 20776-1), E. faecalis. The series is classed as cell-based, Enterococcus faecalis. The following applies: for MIC: Enterococcus faecalis; for MBC E. faecalis: bacteriostatic or bactericidal effect, tested up to 8 × MIC. On the procedure: as §3
Series [12] has as its target T4, hCA I (Homo sapiens, UniProt P00915).
T4 construct: made in house
Put plainly: stopped-flow CO2 hydrase assay, hCA I. The series is classed as biochemical. To be noted: for pKi: stopped-flow CO2 hydrase assay, pH 7.4, mean from 3 assays. On the procedure:
as §1, §2

Setting [13] is: ATCC 14990, without irradiation.
Where [14] appears, read: bacteriostatic or bactericidal effect, tested up to 8 × MIC.
The mark [15] stands for this setting: ATCC 29213, without irradiation.
Where [16] appears, read: light or radiation study, clinical isolate, without irradiation, read-out: MIC E. faecalis.
[17] abbreviates: span over the four compounds and both strains, read-out: MIC against the E. faecalis and S. aureus strains.

pKi: −log10 of the molar value. Read-outs that look alike come from different tables or passages of the source.

PsCA1, sequence (Q9I730 entry or part of it): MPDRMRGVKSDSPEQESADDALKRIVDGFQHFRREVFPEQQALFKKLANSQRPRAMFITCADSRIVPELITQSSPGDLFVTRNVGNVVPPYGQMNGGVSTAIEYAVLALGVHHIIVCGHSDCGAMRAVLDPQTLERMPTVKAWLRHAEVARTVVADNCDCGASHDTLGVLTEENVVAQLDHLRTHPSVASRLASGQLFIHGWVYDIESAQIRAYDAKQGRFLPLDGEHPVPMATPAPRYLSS
E. coli γ, sequence (P0A9W9 whole entry, canonical isoform): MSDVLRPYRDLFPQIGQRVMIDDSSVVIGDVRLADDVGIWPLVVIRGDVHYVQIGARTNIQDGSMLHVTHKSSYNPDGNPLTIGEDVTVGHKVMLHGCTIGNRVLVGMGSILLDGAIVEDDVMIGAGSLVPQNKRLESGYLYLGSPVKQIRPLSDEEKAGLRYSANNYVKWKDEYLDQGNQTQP
T4 sequence (P00915 whole entry): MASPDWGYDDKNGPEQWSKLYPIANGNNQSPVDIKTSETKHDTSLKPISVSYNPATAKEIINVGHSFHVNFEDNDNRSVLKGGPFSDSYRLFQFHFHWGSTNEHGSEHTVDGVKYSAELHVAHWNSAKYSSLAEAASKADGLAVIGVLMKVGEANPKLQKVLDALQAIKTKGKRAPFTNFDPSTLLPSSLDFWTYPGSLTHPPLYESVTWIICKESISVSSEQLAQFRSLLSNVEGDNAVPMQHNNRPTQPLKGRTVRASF

In the case of `CCCN1C(=CC=C2CCCC(C=CC3=[N+](CCC)c4ccccc4C3(C)C)=C2NCCc2ccc(S(N)(=O)=O)cc2)C(C)(C)c2ccccc21` [Compound 2a], the negative logarithm of the Ki (pKi) was 6.92 in [1]; 6.79 in series [4]; 7.26 in [5]; 7.22 in series [7]; 7.05 in series [8]; 6.39 in series [12]. The “Growth Reduction” value in [2] was 1 log reduction. Further, the minimum inhibitory concentration (MIC) fell in the range of 4 to 16 µg/mL in [3] (setting [13]), 8 to 32 µg/mL in series [10] (setting [15]), 16 to 64 µg/mL in series [11] (setting [16]) and 8 to 128 µg/mL in series [11] (setting [17]). In addition, the “MBC S. epidermidis” value in series [3] (Table 3) and in series [3] (setting [14]) was “bactericidal” throughout. The “hemolysis activity, cytotoxicity to human red blood cells” value (shortened to “hemolysis activity, cytotoxicity”) in series [6] is “not cytotoxic”. In series [9], this molecule had an IC50 of 38.5 µg/mL. In addition, the “fold less toxic than 2e” value in [9] (MRC-5 IC50 compared with 2e) turned out to be 19 fold. In addition, the “MBC S. aureus” value in series [10] is reported as “bacteriostatic”. Also, the “MBC E. faecalis” value in [11] was “bactericidal”.

Take `CN1C(=CC=C2CCCC(C=CC3=[N+](C)c4ccc5ccccc5c4C3(C)C)=C2NCCNC(=O)Nc2ccc(S(N)(=O)=O)cc2)C(C)(C)c2c1ccc1ccccc21` [Compound 2f]: the pKi in series [1] is 6.91; in series [4], 6.20; in series [5], 7.19; in series [7], 7.23; in series [8] it was 7.02; in [12] it was 5.41. For the same molecule, the “Growth Reduction” value in series [2] was determined as 1 log reduction. The MIC lay within 2 to 8 µg/mL in series [3] (setting [13]), 16 to 64 µg/mL in series [10] (setting [15]), 32 to 128 µg/mL in series [11] (setting [16]) and 8 to 128 µg/mL in series [11] (setting [17]). Also, the “MBC S. epidermidis” value in [3] (Table 3) and in series [3] (setting [14]) was “bacteriostatic” throughout. The “selectivity index (SI) against S. epidermidis” value in [3] (ratio between cytotoxicity in μg/mL and the MIC value in μg/mL) is “highest SI”. Moreover, the “hemolysis activity, cytotoxicity” value in [6] is given as “not cytotoxic”. This molecule also registered an IC50 in [9] of 78.8 µg/mL. In [10], the “MBC S. aureus” value was “bacteriostatic”. Besides, in series [11], the “MBC E. faecalis” value is reported as “bactericidal”. For the same molecule, the “selectivity for all assayed bacterial isoforms” value in [12] (bacterial CA isoforms versus the human off-target hCA I and II) is about 10 fold.

In the case of `CN1C(=CC=C2CCCC(C=CC3=[N+](C)c4ccc5ccccc5c4C3(C)C)=C2NCCc2ccc(S(N)(=O)=O)cc2)C(C)(C)c2c1ccc1ccccc21` [Compound 2e], the pKi in series [1] is 6.96; in [4] it was 6.80; in series [5], 7.13; in series [7], 7.15; in series [8], 7.11; in [12], 6.07. In addition, the MIC in [3] (setting [13]) was 1 to 4 µg/mL; in series [10] (setting [15]), 8 to 32 µg/mL; in series [11] (setting [16]), 16 to 64 µg/mL; in series [11] (setting [17]) it was 8 to 128 µg/mL. Also, the “MBC S. epidermidis” value in series [3] (Table 3) and in [3] (setting [14]) was “bactericidal” in each case. Further, the “hemolysis activity, cytotoxicity” value in [6] is recorded as “not cytotoxic”. The molecule also displayed an IC50 in series [9] of 2 µg/mL. The “MBC S. aureus” value in series [10] was “bactericidal”. The “MBC E. faecalis” value in [11] is on record as “bactericidal”.

With `CC1(C)C(/C=C/C2=C(NCCNC(=O)Nc3ccc(S(N)(=O)=O)cc3)C(=C/C=C3\N(CCCCS(=O)(=O)O)c4ccc5ccccc5c4C3(C)C)/CCC2)=[N+](CCCCS(=O)(=O)[O-])c2ccc3ccccc3c21` [Compound 2d], the pKi in [1] was 6.95; in [4], 6.74; in [5], 7.16; in series [7], 7.05; in [8], 7.09; in [12] it was 6.03. In addition, the “Growth Reduction” value in [2] is on record as 1 log reduction. For the same molecule, the “MIC S. epidermidis” value in series [3] (setting [13]) is given as “over 256 µg/mL”. Also, the MIC in [3] (setting [13]), in series [10] (setting [15]) and in series [11] (setting [16]) was over 256 µg/mL throughout. The MBC S. epidermidis in [3] (Table 3) and in series [3] (setting [14]) was over 256 µg/mL in each case. Besides, the “hemolysis activity, cytotoxicity” value in [6] is given as “significant cytotoxicity”. The IC50 in series [9] is over 256 µg/mL. The “MIC S. aureus” value in series [10] (setting [15]) is given as “over 256 µg/mL”. In series [10], this molecule had an MBC S. aureus of over 256 µg/mL. Moreover, the MBC E. faecalis in [11] is over 256 µg/mL. Further, in series [11] (clinical isolate, without irradiation), the “MIC E. faecalis” value is reported as “over 256 µg/mL”.

What is called pKi is the negative decadic logarithm of the Ki, by convention in mol/L. A higher pKi goes with a small Ki. One may read the MIC as the lowest concentration found to suppress growth. The IC50 is the concentration that inhibits the measured activity by half. Higher therefore signals lower potency.
